{
  "source": "patent US20070134261A1",
  "about": "“Effectors of innate immunity” (priority 2001, published 2007)",
  "tested_on": "human A549 epithelial cells",
  "test": "Resgen Human cDNA arrays (PRHU03-S3) of A549 cells treated with peptide (Tables 21-26)",
  "settings": "50 μg/ml, 4 h",
  "note": "Values joined by “and” are separate entries in the source; they are usually repeats but may differ in a detail not shown here. Equal entries are not always repeated.",
  "data": [
    {"smiles": "CC[C@H](C)[C@H](N)C(=O)N[C@@H](CC(C)C)C(=O)N1CCC[C@H]1C(=O)N[C@@H](Cc1c[nH]c2ccccc12)C(=O)N[C@@H](CCCCN)C(=O)N[C@@H](Cc1c[nH]c2ccccc12)C(=O)N1CCC[C@H]1C(=O)N[C@@H](Cc1c[nH]c2ccccc12)C(=O)N[C@@H](Cc1c[nH]c2ccccc12)C(=O)N1CCC[C@H]1C(=O)N[C@@H](Cc1c[nH]c2ccccc12)C(=O)N[C@@H](CCCNC(=N)N)C(=O)N[C@@H](CCCNC(=N)N)C(N)=O", "note": "[SEQ ID NO: 2]", "values": [
      {"measurement": "Ratio Peptide:Unstimulated, small inducible cytokine subfamily A (Cys—Cys), member 20", "setting": "AI285199", "value": 0.19},
      {"measurement": "Ratio Peptide:Unstimulated, TLR 1", "setting": "AI339155", "value": 0.35},
      {"measurement": "Ratio Peptide:Unstimulated, disintegrin-like and metalloprotease with thrombospondin type 1 motif, 5", "setting": "AI375048", "value": 0.39},
      {"measurement": "Ratio Peptide:Unstimulated, killer cell lectin-like receptor subfamily G, member 1", "setting": "AI433079", "value": 2.3},
      {"measurement": "Ratio Peptide:Unstimulated, apoptosis antagonizing transcription factor", "setting": "AI439571", "value": 0.28},
      {"measurement": "Ratio Peptide:Unstimulated, T-cell receptor interacting molecule", "setting": "AI453185", "value": 0.41},
      {"measurement": "Ratio Peptide:Unstimulated, TGFB inducible early growth response 2", "setting": "AI473938, listed as ID 2", "value": "2.4 and 2.38"},
      {"measurement": "Ratio Peptide:Unstimulated, MAP kinase kinase kinase 1", "setting": "AI538525", "value": 0.61},
      {"measurement": "Ratio Peptide:Unstimulated, protocadherin 12", "setting": "AI652584", "value": 14.8},
      {"measurement": "Ratio Peptide:Unstimulated, protein tyrosine phosphatase, non-receptor type 18", "setting": "AI668897", "value": 3.2},
      {"measurement": "Ratio Peptide:Unstimulated, Fc fragment of IgE, high affinity I, receptor for; alpha polypeptide", "setting": "AI676097", "value": 0.43},
      {"measurement": "Ratio Peptide:Unstimulated, G protein-coupled receptor 4", "setting": "AI719098", "value": 3.7},
      {"measurement": "Ratio Peptide:Unstimulated, peroxisome proliferative activated receptor, alpha", "setting": "AI739498", "value": 0.38},
      {"measurement": "Ratio Peptide:Unstimulated, cadherin 12, type 2 (N-cadherin 2)", "setting": "AI740827", "value": 13},
      {"measurement": "Ratio Peptide:Unstimulated, complement component C1q receptor", "setting": "AI761788", "value": 0.46},
      {"measurement": "Ratio Peptide:Unstimulated, small inducible cytokine subfamily B (Cys-X-Cys), member 6 (granulocyte chemotactic protein 2)", "setting": "AI889554", "value": 0.11},
      {"measurement": "Ratio Peptide:Unstimulated, small inducible cytokine subfamily A (Cys—Cys), member 21", "setting": "AI922341", "value": 3.9},
      {"measurement": "Ratio Peptide:Unstimulated, protein tyrosine phosphatase, receptor type, H", "setting": "AI924306", "value": 0.11},
      {"measurement": "Ratio Peptide:Unstimulated, tyrosine kinase, non-receptor, 1", "setting": "AI936324", "value": 7.8},
      {"measurement": "Ratio Peptide:Unstimulated, MAP kinase 12", "setting": "AI936909", "value": 2.1},
      {"measurement": "Ratio Peptide:Unstimulated, G protein-coupled receptor 17", "setting": "AI953187", "value": 0.32},
      {"measurement": "Ratio Peptide:Unstimulated, apoptosis inhibitor 5", "setting": "AI972925", "value": 2.8},
      {"measurement": "Ratio Peptide:Unstimulated, IL-17 R", "setting": "AW029299", "value": 2.1},
      {"measurement": "Ratio Peptide:Unstimulated, MAP kinase kinase kinase 6", "setting": "AW084649", "value": 0.37},
      {"measurement": "Ratio Peptide:Unstimulated", "setting": "C-type lectin-like receptor-2 (H70491)", "value": 2.09},
      {"measurement": "Ratio Peptide:Unstimulated", "setting": "CCR6 (N57964)", "value": 4.51},
      {"measurement": "Ratio Peptide:Unstimulated", "setting": "CD31 (PECAM) (R22412)", "value": 2.71},
      {"measurement": "Ratio Peptide:Unstimulated, selectin L (lymphocyte adhesion molecule 1)", "setting": "H00662", "value": 0.03},
      {"measurement": "Ratio Peptide:Unstimulated, MAP kinase kinase kinase 10", "setting": "H01340", "value": 1.23},
      {"measurement": "Ratio Peptide:Unstimulated, protein tyrosine phosphatase, non-receptor type 21", "setting": "H03504", "value": 0.94},
      {"measurement": "Ratio Peptide:Unstimulated, MAP kinase kinase 6", "setting": "H07920, listed as ID 2", "value": "18 and 17.83"},
      {"measurement": "Ratio Peptide:Unstimulated, disintegrin and metalloproteinase domain 23", "setting": "H11006", "value": 1.9},
      {"measurement": "Ratio Peptide:Unstimulated, vascular cell adhesion molecule 1", "setting": "H16591", "value": 0.20},
      {"measurement": "Ratio Peptide:Unstimulated, leukocyte immunoglobulin-like receptor, subfamily B", "setting": "H54023", "value": 0.35},
      {"measurement": "Ratio Peptide:Unstimulated, disintegrin and metalloproteinase domain 9", "setting": "H59231", "value": 1.1},
      {"measurement": "Ratio Peptide:Unstimulated, TGF beta receptor III", "setting": "H62473", "value": 0.91},
      {"measurement": "Ratio Peptide:Unstimulated, regulator of G-protein signaling 13", "setting": "H70047", "value": 0.54},
      {"measurement": "Ratio Peptide:Unstimulated, C-type lectin-like receptor-2", "setting": "H70491", "value": 2.1},
      {"measurement": "Ratio Peptide:Unstimulated, vasoactive intestinal peptide receptor 1", "setting": "H73241", "value": 0.43},
      {"measurement": "Ratio Peptide:Unstimulated, protein tyrosine phosphatase, receptor type, C", "setting": "H74265", "value": 0.44},
      {"measurement": "Ratio Peptide:Unstimulated, protein tyrosine phosphatase, receptor type, A", "setting": "H82419", "value": 4.0},
      {"measurement": "Ratio Peptide:Unstimulated, G protein-coupled receptor 75", "setting": "H84878", "value": 5.2},
      {"measurement": "Ratio Peptide:Unstimulated, cadherin 1, type 1, E-cadherin epithelial", "setting": "H97778", "value": 8.1},
      {"measurement": "Ratio Peptide:Unstimulated, TNF R superfamily, member 5 (CD40LR)", "setting": "H98636, listed as ID 2", "value": "3.0 and 2.98"},
      {"measurement": "Ratio Peptide:Unstimulated", "setting": "IL-11 Rα (AA454657)", "value": 2.39},
      {"measurement": "Ratio Peptide:Unstimulated", "setting": "IL-17 R (AW029299)", "value": 2.05},
      {"measurement": "Ratio Peptide:Unstimulated", "setting": "MAP kinase 9 (AA157286)", "value": 0.57},
      {"measurement": "Ratio Peptide:Unstimulated, TLR 7", "setting": "N30597", "value": 0.13},
      {"measurement": "Ratio Peptide:Unstimulated, CD36", "setting": "N39161", "value": 8.2},
      {"measurement": "Ratio Peptide:Unstimulated, TLR 5", "setting": "N41021", "value": 0.12},
      {"measurement": "Ratio Peptide:Unstimulated, protein tyrosine phosphatase, receptor type, f polypeptide (PTPRF), interacting protein (liprin), α1", "setting": "N49751", "value": 0.43},
      {"measurement": "Ratio Peptide:Unstimulated, IL-2 receptor, gamma (severe combined immunodeficiency)", "setting": "N54821", "value": 0.30},
      {"measurement": "Ratio Peptide:Unstimulated, adenosine A2a R", "setting": "N57553", "value": 3.1},
      {"measurement": "Ratio Peptide:Unstimulated, CCR6", "setting": "N57964", "value": 4.5},
      {"measurement": "Ratio Peptide:Unstimulated, G protein-coupled receptor 55", "setting": "N58443", "value": 19},
      {"measurement": "Ratio Peptide:Unstimulated, G protein-coupled receptor 85", "setting": "N62306", "value": 6.8},
      {"measurement": "Ratio Peptide:Unstimulated, leukocyte immunoglobulin-like receptor, subfamily A", "setting": "N63398", "value": 0.44},
      {"measurement": "Ratio Peptide:Unstimulated, receptor tyrosine kinase-like orphan receptor 2", "setting": "N94921", "value": 7.3},
      {"measurement": "Ratio Peptide:Unstimulated, CD31", "setting": "R22412", "value": 2.7},
      {"measurement": "Ratio Peptide:Unstimulated, IK cytokine, down-regulator of HLA II", "setting": "R39227, listed as ID 2", "value": "3.1 and 3.11"},
      {"measurement": "Ratio Peptide:Unstimulated, cell adhesion molecule", "setting": "R40400", "value": 4.0},
      {"measurement": "Ratio Peptide:Unstimulated, cadherin 13, H-cadherin (heart)", "setting": "R41787", "value": 0.37},
      {"measurement": "Ratio Peptide:Unstimulated, diphtheria toxin receptor (heparin-binding epidermal growth factor-like growth factor)", "setting": "R45640", "value": 0.49},
      {"measurement": "Ratio Peptide:Unstimulated, protein tyrosine phosphatase, receptor type, T", "setting": "R52794", "value": 1.2},
      {"measurement": "Ratio Peptide:Unstimulated, PDGF R beta polypeptide", "setting": "R56211", "value": 2.5},
      {"measurement": "Ratio Peptide:Unstimulated, interleukin enhancer binding factor 1", "setting": "R56553", "value": 2.7},
      {"measurement": "Ratio Peptide:Unstimulated, Fc fragment of IgG, low affinity IIb, receptor for (CD32)", "setting": "R68106", "value": 0.27},
      {"measurement": "Ratio Peptide:Unstimulated, MAP kinase kinase kinase 11", "setting": "R80779", "value": 0.65},
      {"measurement": "Ratio Peptide:Unstimulated, protocadherin gamma subfamily C, 3", "setting": "R89615", "value": 3.0},
      {"measurement": "Ratio Peptide:Unstimulated, G protein-coupled receptor", "setting": "R91916", "value": 1.84},
      {"measurement": "Ratio Peptide:Unstimulated, TNF receptor-associated factor 2", "setting": "T55353", "value": 1.22},
      {"measurement": "Ratio Peptide:Unstimulated, TLR 2", "setting": "T57791", "value": 0.52},
      {"measurement": "Ratio Peptide:Unstimulated, caspase 1, apoptosis-related cysteine protease (interleukin 1, beta, convertase)", "setting": "T95052", "value": 0.44},
      {"measurement": "Ratio Peptide:Unstimulated, BMP R type IA", "setting": "W15390", "value": 1.9},
      {"measurement": "Ratio Peptide:Unstimulated, caspase 6, apoptosis-related cysteine protease", "setting": "W45688", "value": 0.7},
      {"measurement": "Ratio Peptide:Unstimulated, MAP kinase kinase kinase 8", "setting": "W56266", "value": 1.52},
      {"measurement": "Ratio Peptide:Unstimulated, integrin, beta 8", "setting": "W56754", "value": 0.10},
      {"measurement": "Ratio Peptide:Unstimulated, MAP kinase kinase kinase 14", "setting": "W61116", "value": 0.34},
      {"measurement": "Ratio Peptide:Unstimulated, integrin, beta 1", "setting": "W67174", "value": 2.1},
      {"measurement": "Ratio Peptide:Unstimulated, MAP kinase-activated protein kinase 3", "setting": "W68281, listed as ID 2", "value": "2.1 and 2.13"},
      {"measurement": "Ratio Peptide:Unstimulated, MAP kinase kinase 5", "setting": "W69649", "value": 3.0},
      {"measurement": "Ratio Peptide:Unstimulated, TNF receptor superfamily, member 12", "setting": "W71984", "value": 0.59},
      {"measurement": "Ratio Peptide:Unstimulated, killer cell lectin-like receptor subfamily C, member 3", "setting": "W93370", "value": 3.2},
      {"measurement": "Ratio Peptide:Unstimulated, Mouse Mammary Turmor Virus Receptor homolog", "setting": "W93891", "value": 6.9},
      {"measurement": "Ratio Peptide:Unstimulated", "setting": "integrin, alpha 2 (CD49B) (AA463257)", "value": 0.89},
      {"measurement": "Ratio Peptide:Unstimulated", "setting": "integrin, alpha 3 (antigen CD49C) (AA424695)", "value": 0.79},
      {"measurement": "Ratio Peptide:Unstimulated", "setting": "integrin, alpha E (AA425451)", "value": 179.33},
      {"measurement": "Ratio Peptide:Unstimulated", "setting": "integrin, beta 4 (AA485668)", "value": 0.79},
      {"measurement": "Ratio Peptide:Unstimulated", "setting": "small inducible cytokine subfamily A, member 21 (AI922341)", "value": 3.88}
    ]}
  ]
}
